Test results from patent publication US11319300B2, “Polyfluoro-substituted aromatic heterocyclic derivative, pharmaceutical composition containing same, and applications thereof” (ZHEJIANG UNIVERSITY, priority 2017, dated 2022).
Marks after values point to notes of the source that are not given here.

What was measured:
hERG potassium channel = target: T1, hERG potassium channel (Homo sapiens, UniProt Q12809); experiment: hERG potassium channel inhibition, manual whole-cell patch clamp in CHO hERG cells; format: cell-based; details: for hERG (Inhibition rate at 3 μM concentration): CHO hERG cells, patch clamp
T1 construct: host or cells: CHO
T1 sequence (Q12809 whole entry): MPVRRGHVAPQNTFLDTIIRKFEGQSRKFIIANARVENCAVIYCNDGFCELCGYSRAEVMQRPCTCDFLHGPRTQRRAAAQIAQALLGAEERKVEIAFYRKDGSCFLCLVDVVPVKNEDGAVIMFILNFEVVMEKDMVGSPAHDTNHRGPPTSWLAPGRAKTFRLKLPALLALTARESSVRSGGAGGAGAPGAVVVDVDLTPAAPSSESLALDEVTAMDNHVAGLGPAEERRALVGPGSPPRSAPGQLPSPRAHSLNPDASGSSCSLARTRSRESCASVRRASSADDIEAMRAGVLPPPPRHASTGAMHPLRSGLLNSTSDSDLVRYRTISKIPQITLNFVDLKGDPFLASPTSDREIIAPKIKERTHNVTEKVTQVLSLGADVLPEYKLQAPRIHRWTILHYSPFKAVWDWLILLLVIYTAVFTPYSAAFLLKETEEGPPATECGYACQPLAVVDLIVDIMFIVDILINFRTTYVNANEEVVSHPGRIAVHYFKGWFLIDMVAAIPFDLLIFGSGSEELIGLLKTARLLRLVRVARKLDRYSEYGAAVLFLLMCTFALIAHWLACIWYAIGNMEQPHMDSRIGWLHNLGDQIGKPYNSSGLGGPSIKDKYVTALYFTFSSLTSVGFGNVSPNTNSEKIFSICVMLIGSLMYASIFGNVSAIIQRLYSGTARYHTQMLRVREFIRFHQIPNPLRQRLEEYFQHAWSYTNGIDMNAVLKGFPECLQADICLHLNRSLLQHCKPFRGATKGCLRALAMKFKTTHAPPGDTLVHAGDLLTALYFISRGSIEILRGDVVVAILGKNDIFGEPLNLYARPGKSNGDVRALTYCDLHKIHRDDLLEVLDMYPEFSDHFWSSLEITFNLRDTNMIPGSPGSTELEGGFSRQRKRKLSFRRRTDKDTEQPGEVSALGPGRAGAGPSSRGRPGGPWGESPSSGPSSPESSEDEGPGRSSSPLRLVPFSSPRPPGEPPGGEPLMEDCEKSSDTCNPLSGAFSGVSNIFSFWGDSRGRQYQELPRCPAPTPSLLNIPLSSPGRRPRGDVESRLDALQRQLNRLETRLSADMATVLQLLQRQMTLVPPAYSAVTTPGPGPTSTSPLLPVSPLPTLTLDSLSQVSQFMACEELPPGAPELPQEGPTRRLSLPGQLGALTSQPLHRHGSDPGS
Procedure: A Sixty-Third Embodiment: hERG Potassium Channel Inhibition Activity Experiment
The cells used in this assay were CHO cell lines transfected with hERG cDNA and stably expressing the hERG channel (supplied by Sophion Bioscience, Denmark). The cells were cultured in medium containing the following components (all from Invitrogen): Ham's F12 medium, 10% (v/v) inactivated fetal bovine serum, 100 μg/ml hygromycin B, and 100 μg/ml Geneticin. 2.1.2CHO hERG cells were grown in a Petri dish containing the above culture solution, and cultured in an incubator containing 5% of CO2 at 37° C. 24 to 48 hours prior to electrophysiological experiments, CHO hERG cells were transferred to circular glass slides placed in petri dishes and grown under the same culture and culture conditions as above. The density of CHO hERG cells on each circular slide requires that most cells achieve independent, individual requirements.
2. Compound Treatment and Dilution
To obtain the IC50 of the compound, we selecte the following concentrations (30, 10, 3, 1, 0.3, and 0.1 μM) for testing. Prior to testing, the […] were first diluted to 10, 3, 1, 0.3, and 0.1 mM stock solution in gradual dilution with DMSO and then diluted to the final μM test concentration with extracellular fluid. The final concentration of DMSO in each of the other compound solutions was 0.1% except that the DMSO concentration in the 30 μM compound test solution was 0.3%. The positive control Cisapride (cishabili) was tested at a concentration of 0.1 μM. All compound solutions were sonicated and shaken for 5 to 10 minutes to ensure complete dissolution of the compound.
3. Electrophysiological Recording System and Data Analysis
This experiment uses a manual patch clamp system (HEKA EPC-10 signal amplifier and digital conversion system, purchased from HEKA Electronics, Germany) for the recording of whole cell currents. Round slide with CHO hERG cells on the surface was placed in an electrophysiology recording cell under an inverted microscope. The extracellular fluid was continuously perfused in the recording tank (about 1 ml per minute). The experimental procedure uses conventional whole-cell patch clamp current recording techniques. Unless otherwise stated, the experiments were carried out at regular room temperature (˜25° C.). The cells were clamped at a voltage of −80 mV. The cell clamp voltage was depolarized to +20 mV to activate the hERG potassium channel, and after 5 seconds it was clamped to −50 mV to eliminate inactivation and generate tail current. The tail current peak was used as the value of the hERG current magnitude. After the hERG potassium current recorded in the above step was stabilized under the continuous extracellular fluid perfusion in the recording tank, the drug to be tested can be superimposed and filled until the inhibitory effect of the drug on the hERG current reaches a steady state. Generally, the recent three consecutive current recording lines were recombined as a criterion for judging whether or not the state is stable. After reaching a steady state, extracellular fluid perfusion rinse until hERG current returns to the size before adding drug. One cell can test one or more drugs, or multiple concentrations of the same drug, but need to be flushed with extracellular fluid between different drugs. Cisapride (cisapride, purchased from Sigma) was used in the experiment as a positive control to ensure that the cells used were of normal quality. The test data was analysed by HEKA Patchmaster, Microsoft Excel and data analysis software provided by Graphpad Prism.

PKA = PKA (Homo sapiens, UniProt P17612); experiment: Kinase selectivity assay (Caliper), PKA; format: biochemical; details: PKA versus Akt1
Procedure: (§1) A Sixty-Second Embodiment: Kinase Selectivity Assay Test Compound Configuration 1) DMSO was configured with 50× compound stock solution for use. 2) Each compound was diluted in a 96-well plate at a concentration gradient of 5 to 7 to ensure a drug volume of 10 μl per well, to 6 to 7 concentrations, while 100 μl of DMSO was added as a blank control group, and a negative control group without an enzyme substrate was added. 3) Another 96-well plate was prepared, and 10 μl of the above compound was added to 90 μl of 1×kinase base buffer and mixed for 10 min. The board to be tested was prepared: 1) Take a mixture of 5 μl to 384-well plates in a 96-well plate of the above configuration, and per compound has two replicate wells. Kinase Reaction: 1) Configurate a 2.5×kinase solution and add the corresponding 1×kinase base buffer; 2) Configurate a 2.5× polypeptide solution, add a FAM-labeled polypeptide and ATP in a 1×kinase base buffer; 3) 10 μl of 2.5× kinase solution was added to the 384-well plate to be tested, put at room temperature for 10 min, then 10 μl of 2.5× polypeptide solution was added, and after reacting at 28° C. for 1 h, 25 μl of reaction stop buffer was added. The Caliper program reads the plate and uses the data to obtain the IC50 value of the corresponding compound inhibiting kinase. […]

PKC = experiment: Kinase selectivity assay (Caliper), PKC; format: biochemical; details: PKC versus Akt1
Procedure: as §1

AKT1/PKBα = target: T2, AKT1/PKBα (Homo sapiens, UniProt P31749); experiment: Akt1 enzyme inhibitory activity, AKT1/PKBα KinEASE FP Fluorescein Green Assay; format: biochemical; details: fluorescence polarization kit assay; read-out: Akt1 IC50 (grade)
T2 construct: purchased
T2 sequence (P31749 whole entry): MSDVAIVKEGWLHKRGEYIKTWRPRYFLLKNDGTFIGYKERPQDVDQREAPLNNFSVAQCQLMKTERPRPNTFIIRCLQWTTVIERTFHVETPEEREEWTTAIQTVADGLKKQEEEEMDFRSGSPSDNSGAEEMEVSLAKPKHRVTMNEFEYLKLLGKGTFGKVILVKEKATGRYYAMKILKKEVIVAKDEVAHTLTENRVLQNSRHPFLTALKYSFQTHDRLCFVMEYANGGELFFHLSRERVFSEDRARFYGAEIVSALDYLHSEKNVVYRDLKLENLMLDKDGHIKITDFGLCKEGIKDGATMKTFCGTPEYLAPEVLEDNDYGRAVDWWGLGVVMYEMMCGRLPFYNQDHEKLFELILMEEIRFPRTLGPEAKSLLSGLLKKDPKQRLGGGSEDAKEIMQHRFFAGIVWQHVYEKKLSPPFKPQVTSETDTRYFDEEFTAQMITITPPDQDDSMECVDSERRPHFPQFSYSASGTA
How it was run: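 Fluorescence polarization competition: AKT1 with STK Substrate 3 and ATP, 1 h at room temperature, then stop mix and anti-phosphoserine antibody/tracer, 4 h before FP read. Compounds diluted to 50 μM in DMSO before addition, triplicate wells; inhibition from polarization values, IC50 calculated and binned into grades.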

Akt3 = Akt3 (Homo sapiens, UniProt Q9Y243); experiment: Kinase selectivity assay (Caliper), Akt3; format: biochemical; details: Akt3 versus Akt1
Sequence of Akt3 (Q9Y243 whole entry): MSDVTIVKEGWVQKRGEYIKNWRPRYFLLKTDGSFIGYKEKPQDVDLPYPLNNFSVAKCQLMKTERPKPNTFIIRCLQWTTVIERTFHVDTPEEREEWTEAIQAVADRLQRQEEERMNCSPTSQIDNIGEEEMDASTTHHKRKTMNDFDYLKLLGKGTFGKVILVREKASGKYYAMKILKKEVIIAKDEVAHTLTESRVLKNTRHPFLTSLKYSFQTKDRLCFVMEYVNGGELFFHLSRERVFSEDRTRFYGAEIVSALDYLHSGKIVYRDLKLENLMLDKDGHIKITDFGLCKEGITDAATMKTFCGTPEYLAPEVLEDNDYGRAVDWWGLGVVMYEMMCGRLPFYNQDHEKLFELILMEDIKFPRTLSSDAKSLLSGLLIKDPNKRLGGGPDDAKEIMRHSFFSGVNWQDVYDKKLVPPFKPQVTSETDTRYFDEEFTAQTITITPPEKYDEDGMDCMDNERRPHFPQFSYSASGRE
Procedure: as §1

CEM-C1 = experiment: Tumour cell proliferation inhibition, MTT assay, CEM-C1; format: cell-based, human; details: Homo sapiens, CEM/C1, 72 h
Akt2 = Akt2 (Homo sapiens, UniProt P31751); experiment: Kinase selectivity assay (Caliper), Akt2; format: biochemical; details: Akt2 versus Akt1
Sequence of Akt2 (P31751 whole entry): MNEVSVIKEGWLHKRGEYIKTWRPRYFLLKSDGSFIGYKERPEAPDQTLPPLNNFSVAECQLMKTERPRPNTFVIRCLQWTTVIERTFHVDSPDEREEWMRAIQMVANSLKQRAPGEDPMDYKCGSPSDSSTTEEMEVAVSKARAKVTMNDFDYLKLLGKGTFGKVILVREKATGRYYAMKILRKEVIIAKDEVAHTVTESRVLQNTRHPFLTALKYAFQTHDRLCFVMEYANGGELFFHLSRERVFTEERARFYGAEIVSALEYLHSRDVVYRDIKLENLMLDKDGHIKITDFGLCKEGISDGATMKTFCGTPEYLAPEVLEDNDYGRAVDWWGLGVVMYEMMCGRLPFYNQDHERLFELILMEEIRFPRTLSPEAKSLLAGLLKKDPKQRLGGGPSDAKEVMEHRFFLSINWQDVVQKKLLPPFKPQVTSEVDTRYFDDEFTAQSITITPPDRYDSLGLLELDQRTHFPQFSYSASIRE
Procedure: as §1

HGC27 = experiment: Tumour cell proliferation inhibition, MTT assay, HGC27; format: cell-based, human; details: Homo sapiens, HGC-27, 72 h
[1] = tested on: human kidney cancer 786-O nude mice xenografts; experiment: In vivo antitumour activity, human kidney cancer 786-O nude mice xenografts; details: 786-O xenograft; for Tumour volume D1: D 1 (start); for Tumour volume D1 / RTV: x ± SE; for Tumour volume D 21: D 21, x ± SE
Procedure: [Worded in the source for another cell line; this cell line is reported under the same test.] (§2) A Sixty-Fifth Embodiment: In Vivo Antitumour Activity of Compounds
(§3) 1) Establishment of a nude mouse xenograft model: 1×10^7 test tumour cells were injected into the armpit of nude mice, after three generations, HGC27 mouse tumour blocks were dissected and placed in a glass dish containing physiological saline, after the necrotic area was removed by incision, the tumour mass was cut into 1-2 mm^3 and inserted into the left axilla of the nude mouse with a trocar.
(§4) 2) Animal grouping and drug delivery arrangements: after the tumour grows to an average volume of 100-300 mm^3, 20 mice were randomly grouped according to the tumour volume, and the above test animals were given the corresponding test substances by intragastric administration at a dose of 10 mL/kg with once a day.
(§5) 3) Data measurement and statistics: The tumour volume was weighed and measured twice and dosing period was 21 days. On the 22nd day, after the body weight was weighed and the tumour volume was measured, the nude mice were sacrificed and the tumours were weighed to calculate the relative tumour volume (RTV), relative tumour growth rate (T/C) and tumour inhibition percentage (IR) for statistical testing. The calculation formula was as follows: (a) TV (tumour volume)=½×a×b^2, wherein a and b represent the length and width of the tumour respectively, (b) RTV (relative tumour volume)=Vt/V0, Where V0 is the tumour volume measured at the time of group administration (i.e. d0), Vt is the tumour volume at each measurement, (c) T/C (%)=TRTV/CRTV×100%, wherein TRTV is the RTV of treatment group, CRTV is the RTV of the solvent control group, (d) IR (%)=(1−TWt/TWc)×100%, wherein TWt is the tumour weight of the treatment group, and TWc is the tumour weight of the solvent control group.

[2] = Oral pharmacokinetic experiment in SD rats; format: in vivo; details: oral administration
Procedure: […] The blood sampling times of the tail vein administered by intragastric administration were 0.25, 0.5, 1, 2, 4, 6, 8, 10, 24 hours; the times of blood collection by intravenous administration were 0.05, 0.1, 0.17, 0.5, 1, 2, 4, 6, 8, 10, 24 hours. 0.3 ml of whole blood was taken, and after centrifugation, 0.1 ml of plasma was taken and analysed by LC-MS.

[3] = tested on: human gastric cancer HGC27 nude mice xenografts; experiment: In vivo antitumour activity, human gastric cancer HGC27 nude mice xenografts; details: HGC27 xenograft, 50 mg/kg intragastric once a day
Procedure: as §2, §3, §4, §5

[4] = tested on: human ovarian cancer SKOV3 nude mice xenografts; experiment: In vivo antitumour activity, human ovarian cancer SKOV3 nude mice xenografts; details: SKOV3 xenograft, 50 mg/kg
[5] = same concentration (3 μM), ratio of inhibition rates
[6] = rat, in vivo, 20 mg/kg, mean n = 3

Cn1ncc(Cl)c1-c1cc(C(=O)N[C@H](CN)Cc2ccc(F)c(F)c2)oc1Cl [GSK2141795, reference compound]
hERG (Inhibition rate at 3 μM concentration) (hERG potassium channel): 50%
Kinase selectivity: (PKA inhibitory activity IC50)/(Akt1 inhibitory activity IC50) (PKA): 1.2-times
Kinase selectivity: (PKC inhibitory activity IC50)/(Akt1 inhibitory activity IC50) (PKC): 28-times

Cn1nccc1-c1cc(F)c(C(=O)N[C@@H]2CNCC[C@H]2c2ccc(F)c(F)c2)c(F)c1 [VII-12]
IC50 (AKT1/PKBα): 10 to 50 nM
Kinase selectivity: (Akt3 inhibitory activity IC50)/(Akt1 inhibitory activity IC50) (Akt3): 4.1-times
Kinase selectivity: (PKA inhibitory activity IC50)/(Akt1 inhibitory activity IC50) (PKA): 1.3-times
IC50 (CEM-C1): 210 nM
Kinase selectivity: (Akt2 inhibitory activity IC50)/(Akt1 inhibitory activity IC50) (Akt2): 5.5-times
IC50 (HGC27): 50 nM

Cn1nccc1-c1ccc(C(=O)N[C@@H]2CNCC[C@H]2c2ccc(F)c(F)c2)c(F)c1.O=C(O)C[C@H](O)C(=O)O [VII-30]
T/C(%) ([1]; 50 mg/kg): 22.86%
Tumour volume D1 ([1]; 50 mg/kg): 125 ± 14 mm^3
Tumour volume D 21 ([1]; 50 mg/kg): 328 ± 105** mm^3
RTV ([1]; 50 mg/kg): 2.62 ± 0.83
T/C(%) ([1]; 100 mg/kg): 9.26%
Tumour volume D1 ([1]; 100 mg/kg): 126 ± 13 mm^3
Tumour volume D 21 ([1]; 100 mg/kg): 127 ± 51** mm^3
RTV ([1]; 100 mg/kg): 1.06 ± 0.43
hERG (Inhibition rate at 3 μM concentration) (hERG potassium channel): 20%
hERG blocking effect relative to GSK2141795 (hERG potassium channel; [5]): 0.4
hERG blocking effect relative to compound 31 (WO2015/144021A1) (hERG potassium channel; [5]): 0.32
1/2 ([2]; 20 mg/kg, mean n = 3): 3.63 h
AUC0-inf ([2]; 20 mg/kg, mean n = 3): 2390 ng·h/mL
AUC0-t ([2]; 20 mg/kg, mean n = 3): 2350 ng·h/mL
improvement of AUC0-t over VII-1a ([2]; salt versus free form VII-1a): 58%
Cmax [2, 6]: 253 ng/mL
Tmax [2, 6]: 1.75 h
RTV [3]: 7.29 ± 3.03
T/C(%) [3]: 17.27%
Tumour volume D1 ([3]; D1 (start)): 215 ± 88 mm^3
Tumour volume D22 ([3]; D22): 1157 ± 452* mm^3
T/C(%) [4]: 32.96%
Tumour volume D1 ([4]; D 1 (start), x ± SE): 117 ± 65 mm^3
Tumour volume D22 ([4]; D 22, x ± SE): 248 ± 19* mm^3
RTV ([4]; x ± SE): 3.60 ± 2.67
